Experimental data as given in PubChem BioAssay (NCI).
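How tested: cells in 96-well plates exposed to compound for 48 hours at five concentrations. The concentration for 50% growth inhibition is given as GI50. The concentration for full growth arrest is given as TGI.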

Key:
Assay in all cases: NCI anticancer screen, dose series, 48 h
SN12C renal = tested on: SN12C renal
SK-MEL-2 melanoma = tested on: SK-MEL-2 melanoma
DU-145 prostate = tested on: DU-145 prostate
CAKI-1 renal = tested on: CAKI-1 renal
ACHN renal = tested on: ACHN renal
MDA-MB-231 breast = tested on: MDA-MB-231 breast
HOP-62 NSCLC = tested on: HOP-62 NSCLC
IGROV1 ovarian = tested on: IGROV1 ovarian
786-0 renal = tested on: 786-0 renal
CCRF-CEM leukemia = tested on: CCRF-CEM leukemia

Row | Structure (SMILES) | GI50 (SN12C renal) [µM] | TGI (SN12C renal) [µM] | GI50 (SK-MEL-2 melanoma) [µM] | TGI (SK-MEL-2 melanoma) [µM] | GI50 (DU-145 prostate) [µM] | TGI (DU-145 prostate) [µM] | GI50 (CAKI-1 renal) [µM] | TGI (CAKI-1 renal) [µM] | GI50 (ACHN renal) [µM] | TGI (ACHN renal) [µM] | GI50 (MDA-MB-231 breast) [µM] | TGI (MDA-MB-231 breast) [µM] | GI50 (HOP-62 NSCLC) [µM] | TGI (HOP-62 NSCLC) [µM] | GI50 (IGROV1 ovarian) [µM] | TGI (IGROV1 ovarian) [µM] | GI50 (786-0 renal) [µM] | TGI (786-0 renal) [µM] | GI50 (CCRF-CEM leukemia) [µM] | TGI (CCRF-CEM leukemia) [µM]
1 | COc1nc(N(C)O)nc(N(C)O)n1 | 2.25 | > 100 | 6.1 | > 100 | 0.858 | > 100 | 0.491 | 17.3 | 0.625 | > 100 | 3.54 | > 100 | 0.442 | 6.3 | 0.632 | > 100 | 3.74 | 33.2 | 0.624 | > 100
2 | O=[N+]([O-])C1C(c2ccccc2)C12c1ccccc1-c1ccccc12 (centres undefined) | 1.67 | 26 | 4.4 | 31.4 | 0.733 | 3.66 | 1.03 | > 65.7 | 1.47 | 19.1 | 0.633 | 13.5 | 0.573 | 17.6 | 3.41 | 30.1 | 0.59 | 14.2 | 0.318 | 4.22
3 | Nc1nc(SCc2ccccn2)c2ncn(C3CCCC3)c2n1 |  | > 100 |  | > 100 |  | > 100 |  | > 100 |  | > 100 |  | > 100 |  | > 100 |  | > 100 |  | > 100 |  | > 100
4 | CN(C)c1cccc2c(S(=O)(=O)N[C@H]3CC[C@H]4[C@@H]5CCc6cc(O)ccc6[C@H]5CC[C@]34C)cccc12 | 1.64 | 3.43 | 2.37 | 5.48 | 2.71 | 8.51 | 2.05 | 7.43 | 3.1 | 14.1 | 1.75 | 4.41 | 3.97 | 13.9 | 3.45 | 16.2 | 3.18 | 9.78 | 3.25 | > 100
5 | C=C1C(=O)O[C@H]2[C@H]1CC/C(COC(=O)c1cc3cc(F)ccc3[nH]1)=C\CC[C@@]1(C)O[C@@H]21 | 1.85 | 3.92 | 1.95 | 4.27 | 1.67 | 3.19 | 1.2 | 2.62 | 1.46 | 2.94 | 1.59 | 3.5 | 2.92 | 14.9 | 1.44 | 3.14 | 1.78 | 3.75 | 0.919 | 6.52
6 | O=C(NNc1nc(Cl)nc(N2CCN(C(c3ccccc3)c3ccccc3)CC2)n1)c1ccccc1 | 1.72 | 3.17 | 1.83 | 3.55 | 2.15 | 4.53 | 1.68 | 3.1 | 1.75 | 3.17 | 1.96 | 3.77 | 1.88 | 4.04 | 1.66 | 3.06 | 2.21 | 4.84 | 1.28 | 4.53
7 | COc1cccc(C2CC(C)(N3CCCC3)Oc3cc4c(cc32)OCO4)c1O (centres undefined) |  | 84.9 |  | 55.8 |  | > 96.3 |  | > 100 |  | > 100 |  | 80.5 |  | 90.1 |  | 99.2 |  | > 100 |  | > 83.3
8 | N#Cc1c(-c2nc3ccccc3s2)c(=O)oc2cc(O)ccc12 |  | > 100 |  | > 100 |  | > 100 |  | 85.6 |  | > 100 |  | 82.5 |  | 57.3 |  | > 100 |  | > 100 |  | > 100
9 | CCOc1cc2ncc(C#N)c(Nc3ccc(OCc4cccc(F)c4)c(Cl)c3)c2cc1NC(=O)CC1CCSS1 (centres undefined) | > 6.3 | > 25 | 0.99 | > 7.13 | 0.561 | 1.36 | 1.77 | > 25 | 3.1 | > 25 | 1.02 | > 25 |  | > 15.1 | 0.578 | > 6.27 | > 13.8 | > 25 | 0.146 | > 25
10 | COc1cc(/C(C#N)=C/c2ccc3c(c2OC)OCO3)cc2c1OCO2 | 0.695 | > 100 | 0.0461 | 6.46 | 0.122 | 3.63 | 0.0933 | > 100 | 2.43 | > 58.9 | 0.753 | 19.4 | 0.138 | 14.3 | 0.165 | 42.3 | 0.2 | 21.5 | 0.0601 | 4.62
